# Measured values from the supplement of paper PMC10307832.
# Key:
# Experiment in all cases: relative viability (nuclei count vs DMSO), 5 days (fraction); higher = more cells survive
# TPCA-1 + Lapatinib = compound: C1=CC(=CC=C1C2=CC(=C(S2)NC(=O)N)C(=O)N)F [TPCA-1] + CS(=O)(=O)CCNCc1ccc(-c2ccc3ncnc(Nc4ccc(OCc5cccc(F)c5)c(Cl)c4)c3c2)o1 [Lapatinib] (partner 2 µM)
# Outline: (§1)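 Relative viability equals treated-well nuclei counts divided by vehicle-well nuclei counts. Counts came from 4× images of lung cancer cell lines grown in 1536-well plates for 5 days after pin-tool dosing on the day after seeding. Dosing used one drug alone or a fixed anchor-drug dose plus five library-drug doses (not always all listed) in √10 steps, and values are medians of duplicate plates.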
# TPCA-1 + Crizotinib = compound: C1=CC(=CC=C1C2=CC(=C(S2)NC(=O)N)C(=O)N)F [TPCA-1] + C[C@@H](Oc1cc(-c2cnn(C3CCNCC3)c2)cnc1N)c1c(Cl)ccc(F)c1Cl [Crizotinib] (partner 1 µM)
# Outline: as §1
# Lestaurtinib + Dasatinib = compound: C[C@]12O[C@H](C[C@]1(O)CO)n1c3ccccc3c3c4c(c5c6ccccc6n2c5c31)CNC4=O [Lestaurtinib] + Cc1nc(Nc2ncc(C(=O)Nc3c(C)cccc3Cl)s2)cc(N2CCN(CCO)CC2)n1 [Dasatinib] (partner 0.075 µM)
# Outline: as §1
Cell Line,relative viability (TPCA-1 + Lapatinib; first compound 0.04 µM),relative viability (TPCA-1 + Lapatinib; first compound 0.1265 µM),relative viability (TPCA-1 + Lapatinib; first compound 0.4 µM),relative viability (TPCA-1 + Lapatinib; first compound 1.265 µM),relative viability (TPCA-1 + Lapatinib; first compound 4 µM),relative viability (TPCA-1 + Crizotinib; first compound 0.04 µM),relative viability (TPCA-1 + Crizotinib; first compound 0.1265 µM),relative viability (TPCA-1 + Crizotinib; first compound 0.4 µM),relative viability (TPCA-1 + Crizotinib; first compound 1.265 µM),relative viability (TPCA-1 + Crizotinib; first compound 4 µM),relative viability (Lestaurtinib + Dasatinib; first compound 0.005 µM),relative viability (Lestaurtinib + Dasatinib; first compound 0.01581 µM),relative viability (Lestaurtinib + Dasatinib; first compound 0.05 µM),relative viability (Lestaurtinib + Dasatinib; first compound 0.1581 µM),relative viability (Lestaurtinib + Dasatinib; first compound 0.5 µM)
CAL-12T,0.638,0.582,0.708,0.38,0.389,0.597,0.588,0.675,0.717,0.381,0.447,0.413,0.306,0.307,0.153
A-427,1.17,0.901,1.05,0.989,0.907,0.856,0.817,1.09,0.879,0.625,0.846,0.771,0.454,0.24,0.116
HARA,0.744,0.988,0.791,0.722,0.691,0.985,0.995,1.11,1.01,0.56,0.27,0.3,0.21,0.261,0.238
NCI-H1793,1.05,0.669,0.837,0.929,0.354,,,,,,0.431,0.392,0.316,0.361,0.271
NCI-H1623,,,,,,,,,,,0.493,0.576,0.584,0.513,0.497
NCI-H2009,1.12,0.886,0.926,0.444,0.294,1.06,1.05,1.03,1.05,0.891,0.257,0.227,0.2,0.211,0.118
ABC-1,1.19,1.06,1.22,1.21,0.854,1.38,1.05,0.957,0.733,0.569,0.547,0.648,0.482,0.451,0.218
IA-LM,0.64,0.804,0.87,0.626,0.896,0.767,0.762,0.985,0.667,0.657,,,,,
NCI-H322M,0.646,0.612,0.589,0.65,0.492,0.807,0.924,0.873,0.841,0.728,0.233,0.279,0.277,0.293,0.339
NCI-H1792,0.964,0.893,0.843,0.9,0.455,1.01,0.952,1.02,0.928,0.584,1.04,1.33,0.65,0.835,0.616
LXF-289,0.914,0.927,0.807,0.831,0.726,0.84,0.785,0.794,0.806,0.537,0.21,0.275,0.146,0.154,0.0882
HCC-827,0.193,0.198,0.188,0.166,0.132,0.948,0.924,0.899,0.83,0.567,0.428,0.323,0.256,0.318,0.246
